# Source: patent US10976306B2, “Protein degradation inducing tag and usage thereof” (Tokyo University of Science Foundation, priority 2015, dated 2021)
# Non-standard residues stand in square brackets, D forms with d. Residues, ends and D or L forms follow the SMILES beside them. Nle = CCCC[C@H](N)C(=O)O
# Experiments:
# [1] = target: β2 (trypsin-like activity) of 20S proteasome (Homo sapiens, UniProt Q99436); experiment: 20S proteasome inhibitory activity, AMC fluorescent substrate Bz-VGR-AMC
# [2] = target: β5 (chymotrypsin-like activity) of 20S proteasome (Homo sapiens, UniProt P28074); experiment: 20S proteasome inhibitory activity, AMC fluorescent substrate Suc-LLVY-AMC
# [3] = target: T1, β1 (caspase-like activity) of 20S proteasome (Homo sapiens, UniProt P28072); experiment: 20S proteasome inhibitory activity, AMC fluorescent substrate Z-LLE-AMC; type: biochemical
# T1 construct: purchased Bioscience (20S Proteasome StressXpress Assay Kit Gold)
# [4] = target: T2, E. coli DHFR (Escherichia coli, UniProt P0ABQ4); experiment: Thermal shift assay of affinity with forcedly expressed target protein in HeLa cells; type: binding; settings: bortezomib alone
# T2 construct: expressed in transfected cells; host or cells: HeLa cells, transient transfection with pMIR DsRed-IRES-ecDHFR-HA-GFP
SMILES,IC50 [1],IC50 [2],"IC50 ([3]; 20S proteasome 0.1 μg, 30 min preincubation, substrate 100 μM, 1 hour)","inhibitory activity against β1 ([3]; FIGS. 4A, 7A, compared with the original proteasome inhibitor alone)",interaction with E. coli DHFR [4]
CCCC[C@@H](C=O)NC(=O)[C@H](CC(C)C)NC(=O)[C@H](CC(C)C)NC(C)=O [ALLN] (Ac-Leu-Leu-[Nle]-aldehyde),5.25 µM,1150 nM,12.4 µM,not significantly inhibited,–
CC(C)C[C@H](NC(=O)[C@H](Cc1ccccc1)NC(=O)c1cnccn1)B(O)O [Bortezomib],–,–,–,–,did not interact with E. coli DHFR
CC(C)C[C@H](NC(=O)CNC(=O)c1cc(Cl)ccc1Cl)B(O)O [MLN2238],6.4 µM,–,–,–,–
